Measurements taken from article PMC9515952, “Tentative exploration of pharmacodynamic substances: Pharmacological effects, chemical compositions, and multi-components pharmacokinetic characteristics of ESZWD in CHF-HKYd rats” (Frontiers in Cardiovascular Medicine, 2022).
Where two headings read alike, the source gives them in different places.

Tests used:
[1] = Pharmacokinetics of four components of ESZWD in CHF-HKYd rat serum by UPLC-MS/MS; format: in vivo; parameters: AUC(0-t) / AUC(0−t) / AUC(0-inf) / AUC(0−∞): concentration or dose not given beside the values; details: CHF-HKYd rat serum after oral administration of ESZWD, mean ± SD, n = 6
Method: All rats were randomly divided into control group, model group, ESZWD low-dose (3.96 g/kg), medium-dose (7.92 g/kg), high-dose (15.84 g/kg) groups, and positive control group (benazepril, 0.5 mg/kg), with six rats in each group. The CHF-HKYd was established after 1 week of feeding. ESZWD and benazepril were administered by gavage separately for 4 weeks after successful modeling, except for the control group. Blood was collected for 5, 10, 20, 30, 45 min, 1, 2, 4, 6, 8, 12, and 24 h, standing for 2 h and centrifuged at 4°C, 3,500 rpm for 10 min, the supernatant was retained. The state of rats was observed and the urine volume at 24 h was measured. The structure and function of rat heart were evaluated by doppler ultrasonography. Serum biomarkers including myocardial injury indicators NT-proBNP, angiotensinII (AngII), aldosterone (ALD), reactive oxygen species (ROS), superoxide dismutase (SOD), malondialdehyde (MDA), and tumor necrosis factor α (TNF-α) and interleukin 6 (IL-6) were detected by ELISA.
Chromatographic analysis was performed using ACQUITY UPLC BEH C18 column (2.1 × 50 mm, […]), the mobile phase was acetonitrile (A) 0.1% formic acid water (B), the flow rate was set as 0.2 mL·min^−1, the column temperature was 35°C, the injection volume was 2 μL, and the gradient conditions were as follows: 0–8 min: 6–11%A, 8–23 min: 11–19%A, 23–45 min: 19–38%A, 45–55 min: 38–47%A, 55–55.1 min: 47–52%A, 55.1–65 min: 52–90%A, 65–66 min: 90–6%A of UPLC-Q-TOF/MS analysis and 0–3 min: 8–10%A, 3–3.5 min: 10–70% A, 3.5–5: 70–80%A, 5–5.1 min: 80–8% A, 5.1–6 min: 8% A of UPLC-MS/MS.
Mass spectrometric detection of UPLC-MS/MS analysis was carried out on electrospray ionization (ESI) ion source, multiple reaction monitoring (MRM) mode, ion spray voltage of 5,500 V, the curtain gas and collision gas were 40 and 9 kPa, respectively, declustering potential (DP) and collision voltage (CE) are shown in Table 1.

[2] = rat; for Stability, Room temperature, Mean ± SD: 4 h; for Stability, Automatic sampler, Mean ± SD: 8 h; for Stability, Long-term freeze, Mean ± SD: 7 d
Method: (§1) The stability of all probe drugs was evaluated by LQC and HQC samples under different experimental conditions, including short-term stability [4 h at room temperature (25°C), 8 h in the automatic sampler, and three freeze and thaw cycles, respectively] and long-term stability (7 d at −80°C).

[3] = Stability of four compounds in rat serum (UPLC-MS/MS method validation); details: n = 5; for Stability, Room temperature, Mean ± SD: 4 h at room temperature (25°C); for Stability, Automatic sampler, Mean ± SD: 8 h in the automatic sampler; for Stability, Long-term freeze, Mean ± SD: 7 d at −80°C; for Stability, Multigelation, Mean ± SD: three freeze and thaw cycles
Method: as §1

[4] = added 20 ng/mL (salsolinol) or 1 ng/mL (others)
[5] = added 100 ng/mL (salsolinol) or 10 ng/mL (others)
[6] = added 750 ng/mL (salsolinol) or 150 ng/mL (others)

Miltrione
AUC(0−t) [1]: 1,098 ± 69.72 ng/mL·h
AUC(0−∞) [1]: 1,125 ± 84.73 ng/mL·h
CL/F [1]: 297.8 ± 23 mL/min/kg
Cmax [1]: 178.9 ± 16.24 ng/mL
T1/2 [1]: 4.25 ± 0.82 h
Tmax [1]: 1.00 ± 0.00 h
V/F [1]: 108.7 ± 15.80 L/kg

C[C@@]12C[C@@]3(O)O[C@@H](O1)[C@]1(COC(=O)c4ccccc4)[C@H]3C[C@@]12O[C@@H]1O[C@H](CO)[C@@H](O)[C@H](O)[C@H]1O [Paeoniflorin]
Stability, Multigelation, Mean ± SD ([2]; 1 ng/mL): 1.012 ± 0.07 ng/mL
Stability, Multigelation, Mean ± SD ([2]; 10 ng/mL): 10.41 ± 0.73 ng/mL
Stability, Multigelation, Mean ± SD ([2]; 150 ng/mL): 162.2 ± 9.25 ng/mL
Stability, Room temperature, Mean ± SD ([2]; 1 ng/mL): 1.046 ± 0.06 ng/mL
Stability, Room temperature, Mean ± SD ([2]; 10 ng/mL): 10.18 ± 0.72 ng/mL
Stability, Room temperature, Mean ± SD ([2]; 150 ng/mL): 160.7 ± 5.68 ng/mL
Stability, Automatic sampler, Mean ± SD ([2]; 1 ng/mL): 1.053 ± 0.02 ng/mL
Stability, Automatic sampler, Mean ± SD ([2]; 10 ng/mL): 10.51 ± 0.98 ng/mL
Stability, Automatic sampler, Mean ± SD ([2]; 150 ng/mL): 160.2 ± 6.15 ng/mL
Stability, Long-term freeze, Mean ± SD ([2]; 1 ng/mL): 1.010 ± 0.08 ng/mL
Stability, Long-term freeze, Mean ± SD ([2]; 10 ng/mL): 10.19 ± 0.97 ng/mL
Stability, Long-term freeze, Mean ± SD ([2]; 150 ng/mL): 149.6 ± 11.70 ng/mL
V/F [1]: 41.20 ± 0.83 L/kg
AUC(0-inf) ([1]; Sprague-Dawley (SD)): 2260 ± 179 ng·h/mL
AUC(0-t) ([1]; Sprague-Dawley (SD)): 2240 ± 178 ng·h/mL
half-life ([1]; Sprague-Dawley (SD)): 3.22 ± 0.34 h
CL/F ([1]; Sprague-Dawley (SD), read-out: CL/F (converted)): 148 mL/min/kg
Cmax ([1]; Sprague-Dawley (SD), read-out: Cmax): 198 ± 27.7 ng/mL
Tmax ([1]; Sprague-Dawley (SD), read-out: Tmax): 6 ± 2.54 h
half-life ([1]; Sprague-Dawley): ~3 h

C[C@@H]1NCCc2cc(O)c(O)cc21 [Salsolinol]
Stability, Room temperature, Mean ± SD [3, 4]: 21.07 ± 0.74 ng/mL
Stability, Room temperature, Mean ± SD [3, 5]: 112.2 ± 4.13 ng/mL
Stability, Room temperature, Mean ± SD [3, 6]: 700.5 ± 49.6 ng/mL
Stability, Automatic sampler, Mean ± SD [3, 4]: 20.68 ± 0.61 ng/mL
Stability, Automatic sampler, Mean ± SD [3, 5]: 111.3 ± 2.63 ng/mL
Stability, Automatic sampler, Mean ± SD [3, 6]: 716.3 ± 22.1 ng/mL
Stability, Long-term freeze, Mean ± SD [3, 4]: 20.9 ± 1.2 ng/mL
Stability, Long-term freeze, Mean ± SD [3, 5]: 103.9 ± 6.16 ng/mL
Stability, Long-term freeze, Mean ± SD [3, 6]: 685.1 ± 43.66 ng/mL
Stability, Multigelation, Mean ± SD [3, 4]: 21.15 ± 0.54 ng/mL
Stability, Multigelation, Mean ± SD [3, 5]: 110.7 ± 1.34 ng/mL
Stability, Multigelation, Mean ± SD [3, 6]: 727.6 ± 68.05 ng/mL
AUC(0−t) [1]: 2,327 ± 261.0 ng/mL·h
AUC(0−∞) [1]: 2,344 ± 265.7 ng/mL·h
CL/F [1]: 143.8 ± 16 mL/min/kg
Cmax [1]: 314.2 ± 36.84 ng/mL
T1/2 [1]: 3.271 ± 0.58 h
Tmax [1]: 1.25 ± 0.59 h
V/F [1]: 40.68 ± 9.03 L/kg
T1/2 ([1]; listed as salsolinol): about 3 h
